Assay results from patent US20240408043A1, “COMPOSITIONS AND METHODS FOR USE IN INCREASING MOTIVATIONAL PERFORMANCE” (SOCIETE DES PRODUITS NESTLE S.A., priority 2021, published 2024).
“Also recorded” adds a separate entry of the source.

Columns and labels:
[1] = test system: GSH in the nucleus accumbens; assay: GSH level in the nucleus accumbens after NAC in the drinking water; assay type: in vivo, rat; conditions: adult male rats, NAC 500 mg/L in the drinking water for 2 weeks, FIG. 1B
[2] = test system: Adult male Wistar rats; assay: Progressive ratio test of motivated behaviour (operant conditioning, nose poke for saccharine pellets); assay type: in vivo, rat; conditions: NAC 500 mg/L in the drinking water for 2 weeks, two-hour session
Experimental: Adult male outbred rats were trained for nose poke for saccharine food pellets for one week on an FR1 training schedule as described in the methods below. […] Following 2 weeks of treatment, rats were given an additional 2 training sessions, followed 24 h later by a progressive ratio session designed to test their motivated behaviour. During this progressive ratio session, rats have to increasingly work harder to earn the saccharine pellet, as described in the methods below. […] The breakpoint is defined as the last step in the session where the animals received a reward and is a direct correlate of their willingness to exert an effort. […] Animals: Adult male Wistar rats (Charles Rivers, Saint-German-Nuelle, France) weighing 250-275 gr at the beginning of the experiment were used for all experiments. Rats were individually housed in cages in housing colonies on a 12:12 h reversed light:dark cycle with lights on at 20:00, and lights-off at 8:00. Food and water were available adlibitum. Following a week of acclimatization to the animal facilities, rats were handled for 2 min per day for three days prior to the start of the experiments, in order to habituate to the experimenters. Operant conditioning: Ten days after introduction to the reversed day-night cycle, rats started training in a fixed ratio 1 reinforcement schedule (FR1). Operant chambers (Coulbourn Instruments, Holliston, MA, US), placed in sound attenuating cubicles, were equipped with a grid, underneath which a tray with standard bedding material was placed for collection of feces and urine after each training session. Each chamber had one food tray and two ports placed on either side of the tray. A cue light was placed in each port and the food tray, whereas a house light was placed above the food tray. […] Correct nosepokes (i.e. nosepokes in the active port and outside the timeout period, thus resulting in food delivery) were calculated to evaluate behavioural performance, as well as the number of acquired rewards and the last completed ratio (breakpoint).

CC(=O)N[C@@H](CS)C(=O)O [NAC, N-acetyl cysteine]
GSH in the nucleus accumbens compared to vehicle treated rats [1]: enhance GSH levels; also recorded: enhanced GSH
nose pokes for the reward (correct nosepokes) in progressive ratio session, compared to vehicle ([2]; FIG. 1C): significantly more nose pokes
number of rewards earned in progressive ratio session, compared to vehicle ([2]; FIG. 1D): greater number of rewards; also recorded: more overall rewards
breakpoint (last completed ratio) in progressive ratio session, compared to vehicle ([2]; FIG. 1E): significantly higher breakpoint level
